Where a SMILES comes first, the peptide text is derived from it.
Target: HLA B*0801 (Homo sapiens, UniProt P01889, A93T/A95T/D138N/E176V/E187T/K202T/Q94N/R180D/S35A/V36M/Y33D/Y91F)
Assay: biochemical
Assay type: binding

Row | SMILES | IC50
1 | CC[C@H](C)[C@H](NC(=O)[C@H](C)NC(=O)[C@H](CO)NC(=O)[C@H](Cc1ccccc1)NC(=O)[C@H](CCCCN)NC(=O)[C@H](CCCCN)NC(=O)[C@H](CO)NC(=O)[C@@H](NC(=O)[C@@H](N)CC(N)=O)[C@@H](C)CC)C(=O)O [3102.0717] (H-NISKKFSAI-OH) | 2.8 nM
2 | CSCC[C@H](N)C(=O)N[C@@H](Cc1ccccc1)C(=O)NCC(=O)N[C@H](C(=O)N[C@@H](CCCNC(=N)N)C(=O)N[C@@H](CCCCN)C(=O)N[C@@H](CC(N)=O)C(=O)N[C@@H](CO)C(=O)N[C@@H](Cc1ccccc1)C(=O)O)[C@@H](C)O [3102.0718] (H-MFGTRKNSF-OH) | 2 nM
3 | CC[C@H](C)[C@H](NC(=O)[C@H](CCCCN)NC(=O)[C@@H]1CCCN1C(=O)[C@@H](N)CCC(=O)O)C(=O)N[C@@H](CO)C(=O)N[C@@H](CC(C)C)C(=O)N[C@@H](CC(C)C)C(=O)N1CCC[C@H]1C(=O)N[C@@H](CC(C)C)C(=O)O [3102.0719] (H-EPKISLLPL-OH) | 8.5 nM
4 | CC[C@H](C)[C@H](NC(=O)[C@H](CC(N)=O)NC(=O)[C@H](CC(C)C)NC(=O)[C@H](CCCCN)NC(=O)[C@H](CC(N)=O)NC(=O)[C@H](CCSC)NC(=O)[C@@H](NC(=O)[C@@H](N)CC(N)=O)[C@@H](C)CC)C(=O)N[C@H](C(=O)O)C(C)C [3102.0721] (H-NIMNKLNIV-OH) | 5.7 nM
5 | CC(C)C[C@H](NC(=O)[C@H](CCCNC(=N)N)NC(=O)[C@H](C)NC(=O)[C@H](CC(N)=O)NC(=O)[C@H](CCCNC(=N)N)NC(=O)[C@H](C)NC(=O)CNC(=O)[C@@H]1CCCN1C(=O)[C@@H](N)CC(N)=O)C(=O)O [3102.0722] (H-NPGARNARL-OH) | 6.2 nM
6 | CC[C@H](C)[C@H](NC(=O)[C@H](CCC(=O)O)NC(=O)[C@H](CCSC)NC(=O)[C@H](CCCNC(=N)N)NC(=O)[C@@H](N)CC(N)=O)C(=O)N[C@@H](Cc1ccccc1)C(=O)N[C@@H](CC(C)C)C(=O)N[C@H](C(=O)N[C@@H](CC(C)C)C(=O)O)C(C)C [3102.0723] (H-NRMEIFLVL-OH) | 4.9 nM
7 | CSCC[C@H](NC(=O)[C@H](CC(C)C)NC(=O)[C@@H](N)CCSC)C(=O)N[C@@H](CCC(=O)O)C(=O)N[C@H](C(=O)N[C@@H](Cc1ccccc1)C(=O)N1CCC[C@H]1C(=O)N[C@@H](CCC(N)=O)C(=O)N[C@@H](CC(C)C)C(=O)O)C(C)C [3102.0725] (H-MLMEVFPQL-OH) | 13 nM
8 | CC[C@H](C)[C@H](NC(=O)[C@H](CC(C)C)NC(=O)[C@H](Cc1c[nH]cn1)NC(=O)[C@H](CCCCN)NC(=O)[C@H](Cc1ccc(O)cc1)NC(=O)[C@@H](NC(=O)[C@@H]1CCCN1C(=O)[C@@H](N)CCSC)[C@@H](C)O)C(=O)N[C@@H](CCSC)C(=O)O [3102.0727] (H-MPTYKHLIM-OH) | 0.13 nM
9 | CSCC[C@H](NC(=O)[C@H](Cc1ccccc1)NC(=O)CN)C(=O)N[C@@H](CCCNC(=N)N)C(=O)N[C@@H](Cc1ccccc1)C(=O)N[C@@H](Cc1ccccc1)C(=O)N[C@@H](CCC(N)=O)C(=O)N[C@@H](CC(C)C)C(=O)N[C@@H](CC(C)C)C(=O)O [3102.0728] (H-GFMRFFQLL-OH) | 2.4 nM
10 | CC(C)C[C@H](NC(=O)[C@@H](NC(=O)[C@@H](NC(=O)[C@H](CC(N)=O)NC(=O)[C@H](Cc1ccccc1)NC(=O)[C@H](CC(C)C)NC(=O)[C@H](CCCCN)NC(=O)[C@H](CC(C)C)NC(=O)[C@@H](N)CCC(=O)O)C(C)C)[C@@H](C)O)C(=O)O [3102.0729] (H-ELKLFNVTL-OH) | 4.7 nM
11 | CC[C@H](C)[C@H](NC(=O)[C@H](CC(C)C)NC(=O)[C@@H](N)CO)C(=O)N1CCC[C@H]1C(=O)N[C@@H](CCCNC(=N)N)C(=O)N[C@@H](CC(C)C)C(=O)N[C@H](C(=O)N[C@@H](CC(=O)O)C(=O)N[C@@H](Cc1ccccc1)C(=O)O)C(C)C [3102.0730] (H-SLIPRLVDF-OH) | 13 nM
12 | CSCC[C@H](NC(=O)[C@H](Cc1ccccc1)NC(=O)CNC(=O)[C@@H](N)[C@@H](C)O)C(=O)N[C@@H](CCCNC(=N)N)C(=O)N[C@@H](Cc1ccccc1)C(=O)N[C@@H](Cc1ccccc1)C(=O)N[C@@H](CCC(N)=O)C(=O)N[C@@H](CC(C)C)C(=O)O [3102.0731] (H-TGFMRFFQL-OH) | 0.97 nM
13 | CC[C@H](C)[C@H](NC(=O)[C@H](CCC(N)=O)NC(=O)[C@H](CCC(=O)O)NC(=O)[C@H](CCC(N)=O)NC(=O)[C@H](CCCNC(=N)N)NC(=O)[C@H](CCCNC(=N)N)NC(=O)[C@H](CCSC)NC(=O)CNC(=O)[C@@H](N)CO)C(=O)O [3102.0733] (H-SGMRRQEQI-OH) | 17 nM
14 | CC(C)C[C@H](NC(=O)[C@H](CO)NC(=O)CNC(=O)[C@@H]1CCCN1C(=O)[C@H](CCCNC(=N)N)NC(=O)[C@H](Cc1ccccc1)NC(=O)[C@H](CCCCN)NC(=O)[C@H](Cc1ccccc1)NC(=O)[C@@H](N)CO)C(=O)O [3102.0734] (H-SFKFRPGSL-OH) | 3 nM
15 | CC[C@H](C)[C@H](NC(=O)[C@H](CC(=O)O)NC(=O)[C@H](CC(N)=O)NC(=O)[C@@H](NC(=O)[C@H](CCCCN)NC(=O)[C@@H](NC(=O)[C@H](CCCCN)NC(=O)[C@@H]1CCCN1C(=O)[C@@H](N)CCCNC(=N)N)[C@@H](C)CC)[C@@H](C)O)C(=O)O [3102.0737] (H-RPKIKTNDI-OH) | 2.1 nM
16 | CSCC[C@H](NC(=O)[C@H](CCCCN)NC(=O)[C@@H](N)CCC(=O)O)C(=O)N[C@@H](CCCNC(=N)N)C(=O)N[C@@H](CCCNC(=N)N)C(=O)N[C@@H](CCC(=O)O)C(=O)N[C@@H](CCCNC(=N)N)C(=O)N[C@@H](C)C(=O)N[C@@H](C)C(=O)O [3102.0739] (H-EKMRRERAA-OH) | 1.8 nM
17 | CC[C@H](C)[C@H](NC(=O)[C@H](CCCNC(=N)N)NC(=O)[C@@H](NC(=O)[C@H](CCCCN)NC(=O)[C@H](CC(C)C)NC(=O)[C@@H](N)CCCNC(=N)N)[C@@H](C)O)C(=O)N[C@@H](CCCNC(=N)N)C(=O)N[C@@H](CC(N)=O)C(=O)N[C@@H](CC(C)C)C(=O)O [3102.0740] (H-RLKTRIRNL-OH) | 0.69 nM
18 | CC[C@H](C)[C@H](NC(=O)[C@H](CCCNC(=N)N)NC(=O)[C@@H](NC(=O)[C@H](CCCCN)NC(=O)[C@H](CCCCN)NC(=O)[C@@H](N)CO)[C@@H](C)O)C(=O)N[C@@H](CO)C(=O)N[C@@H](CC(=O)O)C(=O)N[C@@H](CC(C)C)C(=O)O [3102.0741] (H-SKKTRISDL-OH) | 2.8 nM
19 | CC(C)C[C@H](NC(=O)[C@H](CCC(=O)O)NC(=O)[C@@H](NC(=O)[C@H](CC(C)C)NC(=O)[C@H](CCCCN)NC(=O)[C@H](CCCNC(=N)N)NC(=O)[C@H](CCCCN)NC(=O)[C@H](C)NC(=O)[C@@H](N)CCC(=O)O)[C@@H](C)O)C(=O)O [3102.0742] (H-EAKRKLTEL-OH) | 2.5 nM
20 | CC[C@H](C)[C@H](NC(=O)[C@H](CCCNC(=N)N)NC(=O)[C@H](CO)NC(=O)[C@H](CCCNC(=N)N)NC(=O)[C@H](CC(C)C)NC(=O)[C@H](C)N)C(=O)N[C@@H](CCCNC(=N)N)C(=O)N[C@@H](CCC(=O)O)C(=O)N[C@@H](CC(C)C)C(=O)O [3102.0743] (H-ALRSRIREL-OH) | 0.46 nM
21 | CSCC[C@H](NC(=O)[C@H](CC(N)=O)NC(=O)[C@H](Cc1ccccc1)NC(=O)[C@H](Cc1ccccc1)NC(=O)[C@H](CCCNC(=N)N)NC(=O)[C@H](CO)NC(=O)[C@H](CC(C)C)NC(=O)[C@H](CC(C)C)NC(=O)[C@H](C)N)C(=O)O [3102.0744] (H-ALLSRFFNM-OH) | 3 nM
22 | CC(C)C[C@H](NC(=O)[C@H](Cc1ccc(O)cc1)NC(=O)[C@@H](NC(=O)[C@H](Cc1ccccc1)NC(=O)[C@H](CCCCN)NC(=O)[C@H](CC(C)C)NC(=O)[C@H](CC(C)C)NC(=O)[C@H](C)NC(=O)[C@@H](N)Cc1ccccc1)[C@@H](C)O)C(=O)O [3102.0745] (H-FALLKFTYL-OH) | 1.6 nM
23 | CC(C)C[C@H](NC(=O)[C@@H](NC(=O)[C@H](CCCCN)NC(=O)[C@H](Cc1ccccc1)NC(=O)[C@H](CCCCN)NC(=O)[C@@H](NC(=O)[C@H](CC(N)=O)NC(=O)[C@H](CC(C)C)NC(=O)[C@@H](N)CO)[C@@H](C)O)[C@@H](C)O)C(=O)O [3102.0746] (H-SLNTKFKTL-OH) | 8.7 nM
24 | CC(C)C[C@H](NC(=O)[C@H](CC(N)=O)NC(=O)[C@@H](NC(=O)[C@H](CC(C)C)NC(=O)[C@H](CCCNC(=N)N)NC(=O)[C@H](CCC(N)=O)NC(=O)[C@H](CCCCN)NC(=O)[C@H](CC(C)C)NC(=O)[C@@H](N)[C@@H](C)O)[C@@H](C)O)C(=O)O [3102.0747] (H-TLKQRLTNL-OH) | 1.7 nM
25 | CSCC[C@H](NC(=O)[C@H](CC(N)=O)NC(=O)[C@@H](N)CCC(=O)O)C(=O)N[C@@H](CC(C)C)C(=O)N[C@@H](CCCNC(=N)N)C(=O)N[C@@H](CO)C(=O)N[C@@H](CCSC)C(=O)N1CCC[C@H]1C(=O)N[C@H](C(=O)O)C(C)C [3102.0748] (H-ENMLRSMPV-OH) | 0.21 nM
26 | CSCC[C@H](NC(=O)[C@H](CCCNC(=N)N)NC(=O)[C@H](Cc1ccccc1)NC(=O)[C@@H]1CCCN1C(=O)[C@H](CCSC)NC(=O)[C@H](CCCCN)NC(=O)[C@H](CC(C)C)NC(=O)[C@@H](N)CC(C)C)C(=O)N[C@H](C(=O)O)C(C)C [3102.0749] (H-LLKMPFRMV-OH) | 7.1 nM
27 | CC(C)C[C@H](NC(=O)[C@@H](NC(=O)[C@H](CO)NC(=O)[C@H](Cc1ccccc1)NC(=O)[C@H](CC(C)C)NC(=O)[C@H](CO)NC(=O)[C@H](CC(C)C)NC(=O)[C@H](CC(C)C)NC(=O)[C@@H](N)Cc1ccc(O)cc1)[C@@H](C)O)C(=O)O [3102.0750] (H-YLLSLFSTL-OH) | 4 nM
28 | CSCC[C@H](N)C(=O)N[C@@H](CC(C)C)C(=O)N[C@@H](CC(C)C)C(=O)N[C@@H](CCCCN)C(=O)N[C@@H](CCCCN)C(=O)N[C@@H](CC(C)C)C(=O)N[C@@H](CC(N)=O)C(=O)N[C@@H](CO)C(=O)N[C@@H](Cc1ccccc1)C(=O)O [3102.0753] (H-MLLKKLNSF-OH) | 0.57 nM
29 | CC(C)C[C@H](NC(=O)[C@H](CO)NC(=O)[C@H](C)NC(=O)[C@H](Cc1ccccc1)NC(=O)[C@H](CCCCN)NC(=O)[C@H](C)NC(=O)[C@H](Cc1ccc(O)cc1)NC(=O)[C@@H](NC(=O)[C@@H](N)[C@@H](C)O)C(C)C)C(=O)O [3102.0754] (H-TVYAKFASL-OH) | 1.6 nM
30 | CC(C)C[C@H](NC(=O)[C@H](CCCNC(=N)N)NC(=O)[C@H](Cc1c[nH]cn1)NC(=O)[C@H](CC(C)C)NC(=O)[C@H](Cc1ccc(O)cc1)NC(=O)[C@H](CCCNC(=N)N)NC(=O)[C@H](CCCNC(=N)N)NC(=O)[C@@H]1CCCN1C(=O)[C@@H](N)CS)C(=O)O [3102.0755] (H-CPRRYLHRL-OH) | 2.7 nM
